From US20240254119A1 (THIRD HARMONIC BIO, INC., priority 2022, published 2024)
pIC50: −log10 of the molar value.

Legend:
[1] = molecular target: T1, wtKIT (Homo sapiens, UniProt P10721); assay: Caliper biochemical assay, wtKIT; conditions: Table 6, read-out: KIT Biochemical IC50 avg
T1 construct: 1888289AM in the reaction mixtures
Procedure: (§1) Enzyme, substrate, and cofactors (ATP and Mn^2+) are combined in a well of a microtiter plate and incubated for 3 hours at 25° C. At the end of the incubation, the reaction is quenched by the addition of an EDTA-containing buffer. Substrate and product are separated electrophoretically using the microfluidic-based LabChip 3000 Drug Discovery System from Caliper Life Sciences* and quantitated by fluorescence intensity.
(§2) The substrate used in the CSF-1R and PDGFRα assay is FAM-[…]-CONH2 (FAM is carboxyfluorescein). Peptide should be >95% purity. The substrate for the KIT assay is FAM-[…]-NH2.
(§3) • 1. To a well of a 384-well plate add 5 μL of 2× enzyme buffer (or control) • 2. Add 100 nL of 100× compound. • 3. Add 5 μL of 2× substrate buffer. • 4. Incubate plate at 25° C. for 3 hours. • 5. Add 10 uL of […]. • 6. Read plate LabChip 3000 Drug Discovery System
(§4) • 3 hours at 25° C. where 100% Inhibitor: No enzyme.
• 100 mM HEPES, pH 7.5 0.1% BSA • 0.01% Triton X-100 • 1 mM DTT • 10 mM MnCl2 • 10 μM Sodium Orthovanadate • 10 μM Beta-Glycerophosphate • 400 μM ATP • 1% DMSO (from compound) • 1 μM FAM-[…]-CONH2 5.0 nM wtKIT Enzyme (1888289AM)* • *Specific activity may vary from lot to lot. Enzyme concentration may need to be adjusted to yield 10-20% conversion of substrate to product.

[2] = molecular target: T2, CSF-1R (Homo sapiens, UniProt P07333); assay: Caliper biochemical assay, CSF-1R; conditions: Table 6
T2 construct: purchased Invitrogen PV3249 (lot 662393N)
T2 sequence (P07333 20-972): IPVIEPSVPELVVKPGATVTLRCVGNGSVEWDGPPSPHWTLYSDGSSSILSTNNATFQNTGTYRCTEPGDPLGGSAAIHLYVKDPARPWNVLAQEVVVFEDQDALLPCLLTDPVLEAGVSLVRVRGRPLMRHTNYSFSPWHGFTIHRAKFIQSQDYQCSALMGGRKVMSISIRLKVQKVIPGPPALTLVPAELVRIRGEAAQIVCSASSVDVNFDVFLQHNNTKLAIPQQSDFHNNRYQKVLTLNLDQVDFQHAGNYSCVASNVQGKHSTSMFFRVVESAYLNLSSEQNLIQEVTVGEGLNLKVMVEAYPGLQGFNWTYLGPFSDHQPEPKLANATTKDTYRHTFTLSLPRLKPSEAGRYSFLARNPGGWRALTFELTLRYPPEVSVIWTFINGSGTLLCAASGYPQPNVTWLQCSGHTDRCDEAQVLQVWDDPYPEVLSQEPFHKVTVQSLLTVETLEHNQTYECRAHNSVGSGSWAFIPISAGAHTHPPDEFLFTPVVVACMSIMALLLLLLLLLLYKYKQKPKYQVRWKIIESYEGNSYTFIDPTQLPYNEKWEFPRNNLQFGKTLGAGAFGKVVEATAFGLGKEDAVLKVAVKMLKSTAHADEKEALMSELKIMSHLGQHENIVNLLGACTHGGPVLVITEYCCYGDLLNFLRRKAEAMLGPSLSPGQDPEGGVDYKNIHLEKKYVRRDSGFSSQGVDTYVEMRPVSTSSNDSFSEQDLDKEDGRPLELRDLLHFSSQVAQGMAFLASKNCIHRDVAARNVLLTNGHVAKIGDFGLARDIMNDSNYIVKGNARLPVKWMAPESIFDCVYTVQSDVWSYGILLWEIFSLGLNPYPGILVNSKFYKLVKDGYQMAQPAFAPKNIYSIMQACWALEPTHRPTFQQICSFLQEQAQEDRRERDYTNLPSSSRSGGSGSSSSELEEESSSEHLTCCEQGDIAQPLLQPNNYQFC
Procedure: as §1, §2, §3, §4

[3] = molecular target: T3, PDGFRα (Homo sapiens, UniProt P16234); assay: Caliper biochemical assay, PDGFRα; conditions: Table 6
T3 construct: purchased Millipore 14-467 (lot 26321_ACTI)
T3 sequence (P16234 24-1089): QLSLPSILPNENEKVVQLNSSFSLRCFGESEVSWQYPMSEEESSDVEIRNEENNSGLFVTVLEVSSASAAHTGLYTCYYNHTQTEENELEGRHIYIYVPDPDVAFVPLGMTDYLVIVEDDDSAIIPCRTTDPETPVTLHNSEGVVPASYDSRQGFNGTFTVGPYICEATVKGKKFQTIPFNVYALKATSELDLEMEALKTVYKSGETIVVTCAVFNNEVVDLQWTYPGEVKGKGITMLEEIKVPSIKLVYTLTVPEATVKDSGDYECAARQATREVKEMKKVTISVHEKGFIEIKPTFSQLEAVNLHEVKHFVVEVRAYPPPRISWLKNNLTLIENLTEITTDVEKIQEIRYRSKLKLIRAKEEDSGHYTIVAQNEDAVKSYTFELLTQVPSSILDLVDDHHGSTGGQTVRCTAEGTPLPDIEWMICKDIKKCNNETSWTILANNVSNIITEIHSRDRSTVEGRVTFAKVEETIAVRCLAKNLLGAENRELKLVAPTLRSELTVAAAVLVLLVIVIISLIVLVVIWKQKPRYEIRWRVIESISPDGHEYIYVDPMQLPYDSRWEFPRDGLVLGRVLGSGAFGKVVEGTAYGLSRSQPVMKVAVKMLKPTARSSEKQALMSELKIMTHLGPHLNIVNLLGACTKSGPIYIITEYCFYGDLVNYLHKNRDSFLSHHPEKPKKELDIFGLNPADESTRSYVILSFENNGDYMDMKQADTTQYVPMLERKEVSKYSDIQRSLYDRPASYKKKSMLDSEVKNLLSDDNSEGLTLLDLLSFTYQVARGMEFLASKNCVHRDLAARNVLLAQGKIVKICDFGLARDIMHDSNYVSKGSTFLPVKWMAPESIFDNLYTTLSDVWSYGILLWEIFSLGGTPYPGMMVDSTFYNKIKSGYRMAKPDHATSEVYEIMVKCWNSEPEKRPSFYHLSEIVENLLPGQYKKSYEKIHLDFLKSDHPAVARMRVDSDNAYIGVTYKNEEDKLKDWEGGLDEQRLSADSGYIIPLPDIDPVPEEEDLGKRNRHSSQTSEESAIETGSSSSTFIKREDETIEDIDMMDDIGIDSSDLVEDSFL
Procedure: as §1, §2, §3, §4

[4] = Kinetic solubility assay; type: physicochemical; conditions: kinetic solubility, 50 mM PB (pH 7.4), shaken 24 hours at RT
Outline: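 Concentration in the filtrate was determined by UPLC-UV or HPLC-UV with a standard curve. Before that, compound (10 mM DMSO stock) in 50 mM PB at pH 7.4 was agitated 24 h at room temperature, then PTFE-filtered with centrifugation.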

[5] = molecular target: T1, wtKIT; assay: HTRF biochemical assay, wtKIT (phosphorylation of a peptide substrate); conditions: Table 4
Outline: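 HTRF read-out of FAM-peptide (1 µM) phosphorylation after anti-phosphotyrosine antibody addition and EDTA quench. Reaction: 5.0 nM wtKIT, 400 µM ATP, 10 mM Mn2+, HEPES pH 7.5, 1% DMSO, 3 h, 25 °C; optional enzyme-compound preincubation; enzyme level set for 10-20% conversion.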

[6] = molecular target: T4, BCRP (BCRP-MDCKII monolayer) (Homo sapiens, UniProt Q9UNQ0); assay: MDCKII-BCRP bidirectional transport assay; type: in vitro ADME; conditions: for MDCK-BCRP: Papp A-B: apical to basolateral
T4 construct: host or cells: MDCKII (canine kidney) cells
T4 sequence (Q9UNQ0 1-655): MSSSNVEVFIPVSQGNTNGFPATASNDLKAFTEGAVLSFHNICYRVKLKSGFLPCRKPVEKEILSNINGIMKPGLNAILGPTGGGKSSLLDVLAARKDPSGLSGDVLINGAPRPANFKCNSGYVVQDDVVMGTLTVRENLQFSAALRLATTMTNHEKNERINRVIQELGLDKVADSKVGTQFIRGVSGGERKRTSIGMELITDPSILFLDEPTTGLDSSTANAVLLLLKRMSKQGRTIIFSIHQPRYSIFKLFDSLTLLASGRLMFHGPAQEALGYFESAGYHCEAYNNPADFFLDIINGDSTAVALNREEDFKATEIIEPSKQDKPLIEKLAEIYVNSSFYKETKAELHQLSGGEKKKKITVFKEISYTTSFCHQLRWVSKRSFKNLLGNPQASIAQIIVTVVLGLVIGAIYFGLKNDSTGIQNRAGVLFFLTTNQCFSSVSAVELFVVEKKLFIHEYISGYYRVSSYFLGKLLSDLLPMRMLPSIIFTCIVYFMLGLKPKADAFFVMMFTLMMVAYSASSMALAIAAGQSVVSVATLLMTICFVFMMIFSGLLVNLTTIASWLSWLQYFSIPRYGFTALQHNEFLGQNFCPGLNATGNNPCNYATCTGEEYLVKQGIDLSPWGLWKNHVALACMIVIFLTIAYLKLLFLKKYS
Procedure: Exemplary compounds were tested for cell permeability in Caco-2, MDCKII-MDR1 and MDCKII-BCRP cell lines with efflux transporter engagement inferred from the efflux ratios determined. Procedures and results are described below. […] This feature of certain compounds is in part due to efflux transporter engagement. See, for instance, exemplary such compounds included in data tables below.
The reference compound Teriflunomide and test compounds are tested in the bidirectional assay. Test compound and reference compounds incubations were tested in duplicates.
The transport assay can be performed between days 12 to day 15 using ready to use PreadyPort™ BCRP-MDCKII monolayer in 96 well plate.
The medium was aspirated from the apical and basal compartments and 75 and 235 μL assay buffer was added to each of the 96 wells of apical and basal compartments of the PreadyPort™ plate.
The plates were pre-incubated for 15 min at 37° C. with 5% CO2 in humidified atmosphere. After preincubation the assay buffer was removed from the apical and basal inserts of the plate.
In apical to basolateral (A→B) transport, 75 μL of test or reference compound working solution to apical inserts and 235 μL of blank assay buffer were added to the corresponding basal compartments.
In basolateral to apical transport, 235 μL of test or reference compound working solution to the basal compartments and 75 μL of blank assay buffer solution were added to corresponding apical inserts.
The sandwich plate was incubated for 120 min in incubator at 5% CO2 and 37° C.
After incubation, 60 μL was transferred from receiver and donor compartments to collection plate.
For donor and C0 samples 20-fold dilution was accomplished by mixing 60 μL of collected sample with 1140 μL of transport buffer and from that solution aliquot 60 μL transfer Both receiver and donor samples were processed by adding […] of acetonitrile containing internal standard (60 μL of sample+240 μL of acetonitrile containing glyburide as internal standard, 125 ng/mL) and vortexing the samples. The compound concentration was measured in all samples using respective calibration standards by LC-MS/MS.
Calculate the Papp and recovery using the given formula:
[formula] [formula] • Where: dQ/dt=Permeability rate in μM/see • C0=Initial concentration in μM • A=Membrane surface area (0.33 cm^2) • V=Volume of receiver chamber • Cend, a=concentration in acceptor well at end of incubation • Cend, d=concentration in donor well at end of incubation • CHBSS=loading concentration measured in HBSS

T1 sequence (P10721 26-976): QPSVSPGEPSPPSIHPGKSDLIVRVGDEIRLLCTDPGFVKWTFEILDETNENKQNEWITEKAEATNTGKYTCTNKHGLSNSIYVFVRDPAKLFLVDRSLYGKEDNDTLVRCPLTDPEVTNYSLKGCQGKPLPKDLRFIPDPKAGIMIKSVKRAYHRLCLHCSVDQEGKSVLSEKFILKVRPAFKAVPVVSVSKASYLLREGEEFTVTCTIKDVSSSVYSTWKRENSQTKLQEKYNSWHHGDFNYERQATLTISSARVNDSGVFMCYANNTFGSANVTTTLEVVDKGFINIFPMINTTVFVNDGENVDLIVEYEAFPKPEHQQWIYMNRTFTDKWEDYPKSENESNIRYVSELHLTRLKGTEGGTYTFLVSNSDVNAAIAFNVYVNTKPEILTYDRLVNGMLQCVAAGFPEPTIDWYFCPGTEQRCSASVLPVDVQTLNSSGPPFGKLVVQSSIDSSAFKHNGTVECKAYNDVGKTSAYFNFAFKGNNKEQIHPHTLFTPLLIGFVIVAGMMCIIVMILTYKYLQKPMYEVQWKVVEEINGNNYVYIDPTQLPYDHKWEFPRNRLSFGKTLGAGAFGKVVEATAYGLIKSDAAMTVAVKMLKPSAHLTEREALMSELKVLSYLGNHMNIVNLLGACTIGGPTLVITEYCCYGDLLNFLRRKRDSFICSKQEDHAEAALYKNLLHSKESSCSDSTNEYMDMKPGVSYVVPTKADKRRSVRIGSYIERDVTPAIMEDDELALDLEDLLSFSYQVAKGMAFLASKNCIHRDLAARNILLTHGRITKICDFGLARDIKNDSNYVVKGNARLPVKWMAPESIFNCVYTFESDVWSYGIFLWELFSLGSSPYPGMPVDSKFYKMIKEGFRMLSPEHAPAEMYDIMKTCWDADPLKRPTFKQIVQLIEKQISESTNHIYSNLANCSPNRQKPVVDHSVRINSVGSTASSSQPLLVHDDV

Compound	pIC50 [1]	pIC50 [2]	pIC50 [3]	Solubility (μM) [4]	pIC50 [5]	MDCK-BCRP: Efflux Ratio [6]	MDCK-BCRP: Papp A-B [6]
Cc1ccc(-c2noc(C3CCN3CCOC(F)(F)F)n2)cc1NC(=O)c1cnc2ccccn12 (racemic) [Compound I-168]	≥ 7.30	6.30 to 7.30	5.30 to 6.30	** (a solubility greater than 10 μM and less than or equal to 50 μM)			
Cc1ccc(-c2noc(C34CCC(CC3)CC4)n2)cc1NC(=O)c1cnc2ccccn12 [Compound I-311]	6.30 to 7.30	≥ 7.30	≥ 7.30	**** (a solubility less than or equal to 2 μM)			
Cc1ccc(-c2noc([C@H]3CCN3S(=O)(=O)C3CCOCC3)n2)cc1NC(=O)c1cnc2ccccn12 [Compound I-196]	≥ 7.30	≥ 7.30	6.30 to 7.30	** (a solubility greater than 10 μM and less than or equal to 50 μM)			
COC(=O)N1CC(c2nc(-c3ccc(C)c(NC(=O)c4cnc5ccc(OC[C@H](C)O)cn45)c3)no2)C1 [Compound I-246]	≥ 7.30			**** (a solubility less than or equal to 2 μM)	6.30 to 7.30	16.9	1.81 10^−6 cm/s
Cc1ccc(-c2noc([C@@H]3CCC(F)(F)CN3)n2)cc1NC(=O)c1cnc2ccccn12 (racemic) [Compound I-198]	≥ 7.30	6.30 to 7.30	5.30 to 6.30	*** (a solubility greater than 2 μM and less than or equal to 10 μM)			
Cc1ccc(-c2noc(C3CCCCN3S(C)(=O)=O)n2)cc1NC(=O)c1cnc2ccccn12 (racemic) [Compound I-174]	6.30 to 7.30	≥ 7.30	6.30 to 7.30	*** (a solubility greater than 2 μM and less than or equal to 10 μM)			
COC(=O)CS(=O)(=O)N1CCC1c1nc(-c2ccc(C)c(NC(=O)c3cnc4ccccn34)c2)no1 (stereo not drawn) [Compound I-197]	≥ 7.30	6.30 to 7.30	5.30 to 6.30	*** (a solubility greater than 2 μM and less than or equal to 10 μM)			
COC(=O)N1CC(c2nc(-c3ccc(C)c(NC(=O)c4cnc5cc(C(F)F)ccn45)c3)no2)C1 [Compound I-135]	≥ 7.30	6.30 to 7.30	4.52 to 5.30	**** (a solubility less than or equal to 2 μM)			
Cc1nc(-c2ccc(C)c(NC(=O)c3cnc4cc(COCC(F)(F)F)ccn34)c2)no1 [Compound I-133]	≥ 7.30	5.30 to 6.30	4.52 to 5.30	**** (a solubility less than or equal to 2 μM)			
Cc1ccc(-c2noc(C3CCN3S(C)(=O)=O)n2)cc1NC(=O)c1cnc2ccccn12 (racemic) [Compound I-356]	≥ 7.30	6.30 to 7.30	5.30 to 6.30	** (a solubility greater than 10 μM and less than or equal to 50 μM)			
Cc1ccc(-c2noc([C@H]3C[C@@H]3F)n2)cc1NC(=O)c1cnc2cc(Nc3ccc4c(c3)OCCO4)ccn12 [Compound I-301]	≥ 7.30	≥ 7.30	≥ 7.30	**** (a solubility less than or equal to 2 μM)			
CCN1CC[C@H]1c1nc(-c2ccc(C)c(NC(=O)c3cnc4ccccn34)c2)no1 (racemic) [Compound I-180]	≥ 7.30	6.30 to 7.30	5.30 to 6.30	* (a solubility greater than 50 μM)			
COC(=O)N1CC(c2nc(-c3ccc(Br)c(NC(=O)c4cnc5ccccn45)c3)no2)C1 [Compound I-338]	≥ 7.30			**** (a solubility less than or equal to 2 μM)		0.82	23.1 10^−6 cm/s
Cc1ccc(-c2noc(C3CN(C(N)=O)C3)n2)cc1NC(=O)c1cnc2ccccn12 [Compound I-268]	6.30 to 7.30			* (a solubility greater than 50 μM)		11.6	0.31 10^−6 cm/s
CC(C)(C)OC(=O)N1CC(c2nc(-c3ccc(Br)c(NC(=O)c4cnc5ccccn45)c3)no2)C1 [Compound I-332]	6.30 to 7.30			**** (a solubility less than or equal to 2 μM)		1.75	2.63 10^−6 cm/s
COC1CC(c2nc(-c3ccc(C)c(NC(=O)c4cnc5ccccn45)c3)no2)C1 (stereo not drawn) [Compound I-350]	≥ 7.30			** (a solubility greater than 10 μM and less than or equal to 50 μM)		1.52	8.86 10^−6 cm/s
CSCC1(c2nc(-c3ccc(C)c(NC(=O)c4cnc5ccccn45)c3)no2)CC(F)(F)C1 [Compound I-354]	≥ 7.30			**** (a solubility less than or equal to 2 μM)		1.03	7.97 10^−6 cm/s
Cc1ccc(-c2noc(C3CC(S(=O)(=O)N(C)C)C3)n2)cc1NC(=O)c1cnc2ccccn12 (stereo not drawn) [Compound I-211]	≥ 7.30			*** (a solubility greater than 2 μM and less than or equal to 10 μM)	6.30 to 7.30	14.1	1.91 10^−6 cm/s
Cc1ccc(-c2noc(C3(C(F)F)CC(F)(F)C3)n2)cc1NC(=O)c1cnc2ccccn12 [Compound I-355]	≥ 7.30			**** (a solubility less than or equal to 2 μM)		0.91	12.3 10^−6 cm/s
